Measured values taken from PubChem BioAssay AID1259407 (Chemical Carcinogenesis Research Information System (CCRIS), 2018).
Calls of active or inactive are those of the source. How the calls were made is not given here.

Test system: CCRIS mutagenicity, Ames/micronucleus/aberration tests
Assay: CCRIS mutagenicity studies
[1] = Test System: AMES SALMONELLA TYPHIMURIUM, Strain/Indicator: TA98, Metabolic Activation: NONE, Method: PREINCUBATION
[2] = Test System: AMES SALMONELLA TYPHIMURIUM, Strain/Indicator: TA100, Metabolic Activation: NONE, Method: PREINCUBATION

SMILES: NC(=O)c1ccccc1O
- mutagenic call (Test System: AMES SALMONELLA TYPHIMURIUM, Strain/Indicator: TA97, Metabolic Activation: HAMSTER, LIVER, S-9, AROCLOR 1254 (10 OR 30%), Method: PREINCUBATION): inactive; negative
- mutagenic call (Test System: AMES SALMONELLA TYPHIMURIUM, Strain/Indicator: TA97, Metabolic Activation: NONE, Method: PREINCUBATION): inactive; negative
- mutagenic call (Test System: AMES SALMONELLA TYPHIMURIUM, Strain/Indicator: TA97, Metabolic Activation: RAT, LIVER, S-9, AROCLOR 1254 (10 OR 30%), Method: PREINCUBATION): inactive; negative
- mutagenic call (Test System: AMES SALMONELLA TYPHIMURIUM, Strain/Indicator: TA98, Metabolic Activation: GUINEA PIG, LIVER, S-9, PCB, Method: PREINCUBATION): inactive; negative
- mutagenic call (Test System: AMES SALMONELLA TYPHIMURIUM, Strain/Indicator: TA98, Metabolic Activation: HAMSTER, LIVER, S-9, AROCLOR 1254 (10 OR 30%), Method: PREINCUBATION): inactive; negative
- mutagenic call (Test System: AMES SALMONELLA TYPHIMURIUM, Strain/Indicator: TA98, Metabolic Activation: HAMSTER, LIVER, S-9, PCB, Method: PREINCUBATION): inactive; negative
- mutagenic call (Test System: AMES SALMONELLA TYPHIMURIUM, Strain/Indicator: TA98, Metabolic Activation: MOUSE, LIVER, S-9, PCB, Method: PREINCUBATION): inactive; negative
- mutagenic call [1]: inactive; negative
- mutagenic call (Test System: AMES SALMONELLA TYPHIMURIUM, Strain/Indicator: TA98, Metabolic Activation: RAT, LIVER, S-9, AROCLOR 1254 (10 OR 30%), Method: PREINCUBATION): inactive; negative
- mutagenic call (Test System: AMES SALMONELLA TYPHIMURIUM, Strain/Indicator: TA98, Metabolic Activation: RAT, LIVER, S-9, PCB, Method: PREINCUBATION): inactive; negative
- mutagenic call (Test System: AMES SALMONELLA TYPHIMURIUM, Strain/Indicator: TA100, Metabolic Activation: GUINEA PIG, LIVER, S-9, PCB, Method: PREINCUBATION): inactive; negative
- mutagenic call (Test System: AMES SALMONELLA TYPHIMURIUM, Strain/Indicator: TA100, Metabolic Activation: HAMSTER, LIVER, S-9, AROCLOR 1254 (10 OR 30%), Method: PREINCUBATION): inactive; negative
- mutagenic call (Test System: AMES SALMONELLA TYPHIMURIUM, Strain/Indicator: TA100, Metabolic Activation: HAMSTER, LIVER, S-9, PCB, Method: PREINCUBATION): inactive; negative
- mutagenic call (Test System: AMES SALMONELLA TYPHIMURIUM, Strain/Indicator: TA100, Metabolic Activation: MOUSE, LIVER, S-9, PCB, Method: PREINCUBATION): inactive; negative
- mutagenic call [2]: inactive; negative
- mutagenic call (Test System: AMES SALMONELLA TYPHIMURIUM, Strain/Indicator: TA100, Metabolic Activation: RAT, LIVER, S-9, AROCLOR 1254 (10 OR 30%), Method: PREINCUBATION): inactive; negative
- mutagenic call (Test System: AMES SALMONELLA TYPHIMURIUM, Strain/Indicator: TA100, Metabolic Activation: RAT, LIVER, S-9, PCB, Method: PREINCUBATION): inactive; negative
- mutagenic call (Test System: AMES SALMONELLA TYPHIMURIUM, Strain/Indicator: TA1535, Metabolic Activation: HAMSTER, LIVER, S-9, AROCLOR 1254 (10 OR 30%), Method: PREINCUBATION): inactive; negative
- mutagenic call (Test System: AMES SALMONELLA TYPHIMURIUM, Strain/Indicator: TA1535, Metabolic Activation: NONE, Method: PREINCUBATION): inactive; negative
- mutagenic call (Test System: AMES SALMONELLA TYPHIMURIUM, Strain/Indicator: TA1535, Metabolic Activation: RAT, LIVER, S-9, AROCLOR 1254 (10 OR 30%), Method: PREINCUBATION): inactive; negative

SMILES: O=C(NCO)c1ccc(Cl)cc1
- mutagenic call (Test System: AMES SALMONELLA TYPHIMURIUM, Strain/Indicator: TA100, Metabolic Activation: RAT, LIVER, S-9, AROCLOR AND 3'-PHOSPHOADENOSINE-5'-PHOSPHOSULPHATE GENERATING SYSTEM, Method: PREINCUBATION): inactive; negative
- mutagenic call (Test System: AMES SALMONELLA TYPHIMURIUM, Strain/Indicator: TA100, Metabolic Activation: RAT, LIVER, S-9, AROCLOR AND ACETYL COENZYME A, Method: PREINCUBATION): inactive; negative
- mutagenic call (Test System: AMES SALMONELLA TYPHIMURIUM, Strain/Indicator: TA100, Metabolic Activation: RAT, LIVER, S-9, AROCLOR, Method: PREINCUBATION): inactive; negative

SMILES: Cc1cnc2ccc3c(nc(N)n3C)c2n1
- mutagenic call (End Point: IN VIVO MICRONUCLEUS, Test System: BONE MARROW POLYCHROMATIC ERYTHROCYTES, Species: MOUSE, Strain/Sex: BALB/C/MALE, Route: IP INJECTION): inactive; negative
- mutagenic call (Test System: AMES SALMONELLA TYPHIMURIUM, Strain/Indicator: TA98, Metabolic Activation: CYNOMOLGUS MONKEY, LIVER, MICROSOMES, Method: PREINCUBATION): inactive; negative
- mutagenic call (Test System: AMES SALMONELLA TYPHIMURIUM, Strain/Indicator: TA98, Metabolic Activation: CYNOMOLOGUS MONKEY, LIVER, MICROSOMES, 2,3,7,8-TETRACHLORODIBENZO-P-DIOXIN, Method: PREINCUBATION): active; positive
- mutagenic call (Test System: AMES SALMONELLA TYPHIMURIUM, Strain/Indicator: TA98, Metabolic Activation: CYNOMOLOGUS MONKEY, LIVER, MICROSOMES, 2-AMINO-3-METHYLIMIDAZO[4,5-F]QUINOLINE, Method: PREINCUBATION): active; positive
- mutagenic call (Test System: AMES SALMONELLA TYPHIMURIUM, Strain/Indicator: TA98, Metabolic Activation: CYNOMOLOGUS MONKEY, LIVER, MICROSOMES, RIFAMPICIN, Method: PREINCUBATION): inactive; negative
- mutagenic call (Test System: AMES SALMONELLA TYPHIMURIUM, Strain/Indicator: TA98, Metabolic Activation: HUMAN, LIVER, MICROSOMES, Method: PREINCUBATION): active; positive
- mutagenic call (Test System: AMES SALMONELLA TYPHIMURIUM, Strain/Indicator: TA98, Metabolic Activation: MONKEY, LIVER, MICROSOMES, Method: PREINCUBATION): active; positive
- mutagenic call [1]: inactive; negative
- mutagenic call (Test System: AMES SALMONELLA TYPHIMURIUM, Strain/Indicator: TA98, Metabolic Activation: PATAS MONKEY, LIVER, MICROSOMES, Method: PREINCUBATION): active; positive
- mutagenic call (Test System: AMES SALMONELLA TYPHIMURIUM, Strain/Indicator: TA98, Metabolic Activation: RABBIT (6 TO 9 D OF AGE), LIVER, MICROSOMES, 3-METHYLCHOLANTHRENE, Method: PREINCUBATION): inactive; negative
- mutagenic call (Test System: AMES SALMONELLA TYPHIMURIUM, Strain/Indicator: TA98, Metabolic Activation: RABBIT (6 TO 17 D OF AGE), LIVER, MICROSOMES, Method: PREINCUBATION): inactive; negative
- mutagenic call (Test System: AMES SALMONELLA TYPHIMURIUM, Strain/Indicator: TA98, Metabolic Activation: RABBIT (9 D OF AGE TO ADULT), LIVER, MICROSOMES, 3-METHYLCHOLANTHRENE, Method: PREINCUBATION): active; positive
- mutagenic call (Test System: AMES SALMONELLA TYPHIMURIUM, Strain/Indicator: TA98, Metabolic Activation: RABBIT (17 D OF AGE TO ADULT), LIVER, MICROSOMES, Method: PREINCUBATION): active; positive
- mutagenic call (Test System: AMES SALMONELLA TYPHIMURIUM, Strain/Indicator: TA98, Metabolic Activation: RAT, LIVER, MICROSOMES, Method: PREINCUBATION): active; positive
- mutagenic call (Test System: AMES SALMONELLA TYPHIMURIUM, Strain/Indicator: TA98, Metabolic Activation: RAT, LIVER, S-9, AROCLOR 1254, Method: PREINCUBATION): active; positive
- mutagenic call (Test System: AMES SALMONELLA TYPHIMURIUM, Strain/Indicator: TA98, Metabolic Activation: RAT, LIVER, S-9, AROCLOR 1254, Method: STANDARD PLATE): active; positive
- mutagenic call [2]: inactive; negative
- mutagenic call (Test System: AMES SALMONELLA TYPHIMURIUM, Strain/Indicator: TA100, Metabolic Activation: RAT, LIVER, S-9, AROCLOR 1254, Method: PREINCUBATION): active; positive
- mutagenic call (Test System: AMES SALMONELLA TYPHIMURIUM, Strain/Indicator: YG1019, Metabolic Activation: RAT LIVER S-9, AROCLOR, Method: PREINCUBATION): active; positive
- mutagenic call (Test System: CHINESE HAMSTER V-79, Strain/Indicator: V-79/6-THIOGUANINE, Metabolic Activation: RAT, LIVER, S-9, AROCLOR 1254): inactive; negative
- mutagenic call (Test System: UDS HAMSTER HEPATOCYTES, Strain/Indicator: THY INCORP, Metabolic Activation: NONE, Method: LIQUID SCINTILLATION COUNTING): active; positive
- mutagenic call (Test System: UDS HUMAN HEPATOCYTES, Strain/Indicator: THY INCORP, Metabolic Activation: NONE, Method: AUTORADIOGRAPHY): active; positive
- mutagenic call (Test System: UDS MOUSE HEPATOCYTES, Strain/Indicator: THY INCORP, Metabolic Activation: NONE, Method: AUTORADIOGRAPHY): inactive; negative
- mutagenic call (Test System: UDS RAT HEPATOCYTES, Strain/Indicator: THY INCORP, Metabolic Activation: NONE, Method: AUTORADIOGRAPHY): inactive; negative
- mutagenic call (Test System: UDS RAT HEPATOCYTES, Strain/Indicator: THY INCORP, Metabolic Activation: NONE, Method: LIQUID SCINTILLATION COUNTING): inactive; negative
